Series [1] relates to M. smegmatis within RAW 264.7 macrophages. The series is described as follows: Preventive effects (pre-incubation) in M. smegmatis-infected RAW 264.7 cells (CFU). The conditions noted are these: for reduction of bacterial loads after pre-incubation, M. smegmatis / reduction of CFU counts after re-treatment, M. smegmatis: 15 μM; for reduction of CFU counts after re-treatment, M. smegmatis: pre-incubation and re-treatment, 12 h after infection. The series is classed as cell-based, Mycobacterium smegmatis. The protocol: For the second in vitro cellular infection test with M. smegmatis, RAW 264.7 were seeded in 96-well culture plates at a density of 1 × 10^4 cells/well in DMEM medium (with 10% FBS, without antibiotics) and incubated overnight at 37 °C with 5% CO2. Cells were pre-incubated with CP (15 μM), CA (30 μM), DE (15 μM), and DP (15 μM) for 8 h in DMEM medium. Infection of RAW 264.7 cells with M. smegmatis was performed at a multiplicity of infection of 1:1 for 2 h at 37 °C with 5% CO2 [20]. Infected RAW 264.7 were then lysed with 0.1% Triton–X100, and these suspensions were diluted and plated on LB agar. Remaining wells were then re-treated with the tested substances in DMEM medium. Macrophages were lysed after 12 h, and these suspensions were diluted and plated on LB prior to CFU counting. CFU/well was determined as previously described in the infection experiments using macrophages and M. smegmatis.

The test system of series [2] is M. tuberculosis H37Ra in RAW 264.7 macrophages. The series is described as follows: Therapeutic potential in M. tuberculosis-infected RAW 264.7 cells (CFU). The series is classed as cell-based, Mycobacterium tuberculosis. The following applies: for effect on M. tuberculosis in RAW 264.7: DE 15 μM, CA 30 and 15 μM, 24 h and 48 h. The protocol:
For the infection test with M. tuberculosis H37Ra, RAW 264.7 were seeded in 96-well culture plates at a density of 4 × 10^3 cells/well in DMEM medium (with 10% FBS, without antibiotics) and incubated overnight at 37 °C with 5% CO2 [20]. Infection of RAW 264.7 cells with M. tuberculosis was performed at a multiplicity of infection of 1:1 for 3 h at 37 °C with 5% CO2. The medium with non-internalized bacteria was removed and infected cells were then treated with the tested substances in DMEM:CP (15 µM, 7.5 µM, and 3.25 µM), CA (30 µM), and DE (15 µM) for 24 h and CA (30 µM and 15 µM) and DE (15 µM) for 48 h. Macrophages were lysed after incubations with 0.1% Triton–X100, and these suspensions were diluted and plated on Middlebrook 7H10 plus 10% OADC. Plates were incubated for 4 weeks at 37 °C and data were expressed as log10(CFU/well).

Series [3] concerns M. smegmatis within RAW 264.7 macrophages. The series is described as follows: Therapeutic potential in M. smegmatis-infected RAW 264.7 cells (CFU). The series is classed as cell-based, Mycobacterium smegmatis. The conditions noted are these: 24 h of treatment after infection; for reduction of bacterial burden, M. smegmatis within RAW 264.7: 15 μM, vs untreated controls. The protocol: For the first in vitro infection test with M. smegmatis, RAW 264.7 were seeded in 96-well culture plates at a density of 1 × 10^4 cells/well in DMEM medium (with 10% FBS, without antibiotics) and incubated overnight at 37 °C with 5% CO2 [20]. Infection of RAW 264.7 cells with M. smegmatis mc^2155 was performed at a multiplicity of infection of 1:1 for 2 h at 37 °C with 5% CO2. The medium with non-internalized bacteria was removed, and infected cells were then treated with the tested substances in DMEM: CP (15 µM, 7.5 µM and 3.25 µM), CA (30 µM, 15 µM, 7.5 µM and 3.25 µM), DE (15 µM, 7.5 µM and 3.25 µM), and DP (15 µM, 7.5 µM and 3.25 µM). Macrophages were lysed after 24 h with 0.1% Triton–X100, and these suspensions were diluted and plated on LB. CFU was determined after incubation of plates for 3 days at 37 °C. CFU numbers were expressed as log (CFU/well).

Series [4] has as its system Artemia salina. In words: Artemia salina toxicity test. The conditions noted are these: 24 h; for effect on A. salina nauplii survival: 30 to 120 µM; for IC50: Artemia salina, estimated. The method, then: Artemia salina (brine shrimp) survival was determined after incubation with CP and its analogues following the method described by Magalhães et al.. A. salina cysts were purchased from a local aquarium store and hatched (0.5 g cysts/L) in modified artificial seawater (35 g/L sea salt) supplemented with dried yeast (6 mg/L). Aeration was provided using an aquarium air pump connected to a line extending to the bottom of the hatching vessel. After 2 days incubation (in a 23–25 °C room), nauplii were collected using a Pasteur pipette after attracting the organisms to one side of the vessel with a light source. Test compounds were serially diluted 2-fold (ranging from 30 to 120 µM) in 96-well microplates containing 100 µL of 0.9% NaCl solution with dried yeast (6 mg/L). All experiments were performed in quadruplicate with a final DMSO concentration of 2.5%. Vehicle control wells (with 2.5% DMSO) were included in the experiment. A suspension containing 8–12 nauplii in 100 µL was added to each well, and the plates were incubated at 23–25 °C for 24 h. The number of live and dead (non-motile) nauplii in each well was then counted under a microscope. Nauplii were considered dead if they remained immobile for 10 s under light exposure. The survival percentage for each test group was calculated relative to the control group (2.5% DMSO), which was set as 100%.

Series [5] relates to M. tuberculosis H37Ra in RAW 264.7 macrophages. In words: Preventive effects (pre-incubation) in M. tuberculosis-infected RAW 264.7 cells (CFU). The series is classed as cell-based, Mycobacterium tuberculosis. The following applies: for effect on M. tuberculosis CFU counts after pre-incubation and re-treatment: 12 h after infection. The method, then:
For the second cellular infection test with M. tuberculosis H37Ra, RAW 264.7 cells were seeded in 96-well culture plates at a density of 4 × 10 ^3 cells/well in DMEM medium (with 10% FBS, without antibiotics) and incubated overnight at 37 °C with 5% CO2. Cells were pre-incubated with the CP (15 µM), DE (15 µM), and CA (30 µM) compounds. Infection of RAW 264.7 cells with M. tuberculosis was performed at a multiplicity of infection of 1:1 for 3 h at 37 °C with 5% CO2 [20]. Infected RAW 264.7 were then lysed with 0.1% Triton-X100, and suspensions were diluted and plated on Middlebrook 7H10 agar plus OADC. Remaining wells were then re-treated with the test substances in DMEM medium. Macrophages were lysed after 12 h and plated on Middlebrook 7H10 containing OADC prior to CFU counting. CFU/well was determined as previously described in the infection experiments using macrophages and M. smegmatis.

Series [6] deals with HepG2 cells. In words: Cytotoxicity on HepG2 cells (MTT). Type of series: cell-based, human. The conditions noted are these: 24 h; for effect on HepG2 cell viability: 30 to 120 µM, MTT; for IC50: Homo sapiens, HepG2, estimated. The protocol: Cytotoxicity was evaluated using the MTT method. For this purpose, two cell lines were tested: Vero E6 and HepG2. Both cell lines were seeded at 1 × 10^4 cells/well in 96-well microtiter plates and incubated overnight to adhere. The culture medium was carefully aspirated and replaced with 100 µL DMEM plus 100 µL of test compound solutions (CP, CA, and DE), yielding final concentrations ranging from 30 to 120 µM (1% DMSO, v/v). Cells were incubated with test compounds for 24 h at 37 °C in a 5% CO2 atmosphere. MTT solution (0.5 mg/mL) was subsequently added, and cells were incubated for an additional 3 h. The resulting formazan crystals were dried at room temperature for 24 h and dissolved in DMSO. Absorbance was measured at 570 nm (microplate reader EL800, BioTek, Winooski, VT, USA). Cell viability was calculated as previously described in the RAW 264.7 cell viability assay section.

Setting [7] is: 8 h pre-incubation, immediately after 2 h of infection.

Consider `COC(=O)/C1=C/c2c([nH]c3ccccc23)/C(C(=O)OC)=C\c2c1[nH]c1ccccc21` [CP, Caulerpin], for which, in series [1] (setting [7]), the “reduction of bacterial loads after pre-incubation, M. smegmatis” value was 0.360 log10. The “reduction of CFU counts after re-treatment, M. smegmatis” value in series [1] came to 0.287 log10. Besides, in series [2] (7.5 µM and 3.25 µM, 24 h), the “effect on M. tuberculosis in RAW 264.7, lower concentrations” value is recorded as “no inhibitory effect”. Also, the “decrease in CFU counts, M. tuberculosis in RAW 264.7” value in series [2] (15 μM, 24 h of incubation) stood at 0.250 log10. Moreover, the “reduction of bacterial burden, M. smegmatis within RAW 264.7” value in series [3] came out at 0.230 log10 CFU. Further, in series [4], the “effect on A. salina nauplii survival” value is recorded as “did not affect nauplii survival rates” and the IC50 is over 120 µM. Besides, the “effect on M. tuberculosis CFU counts after pre-incubation and re-treatment” value (“effect on M. tuberculosis CFU counts” for short) in series [5] (15 μM) is on record as “significant reductions in CFU counts”. Also, in series [6], the “effect on HepG2 cell viability” value is listed as “did not significantly reduce cell viability” and the IC50 is over 120 µM.
With `O=C(O)C1=Cc2c([nH]c3ccccc23)C(C(=O)O)=Cc2c1[nH]c1ccccc21` [CA, caulerpinic acid], the “decrease of CFU counts after pre-incubation, M. smegmatis” value in series [1] (30 μM, 8 h pre-incubation, immediately after 2 h of infection) amounted to 0.407 log10. In series [2], the “effect on M. tuberculosis in RAW 264.7” value was “neither DE nor CA showed inhibitory effects at either timepoint”. Moreover, the “reduction of bacterial counts, M. smegmatis within RAW 264.7” value in series [3] (30 μM) is 0.243 log10. Also, in series [4], the “effect on A. salina nauplii survival” value is listed as “did not affect nauplii survival rates” and the concentration for half-maximal inhibition (IC50) is over 120 µM. For the same compound, in series [5] (30 μM), the “effect on M. tuberculosis CFU counts” value is reported as “significant reductions in CFU counts”. In series [6], the “effect on HepG2 cell viability” value is “did not significantly reduce cell viability” and the half-maximal inhibitory concentration (IC50) was over 120 µM.
As for `CCOC(=O)/C1=C/c2c([nH]c3ccccc23)/C(C(=O)OCC)=C\c2c1[nH]c1ccccc21` [DE, (6E,13E)-diethyl 5,12-dihydrocycloocta[1,2-b:5,6-b′]diindole-6,13-dicarboxylate], the “reduction of bacterial loads after pre-incubation, M. smegmatis” value in series [1] (setting [7]) was 0.402 log10. In series [1], the “reduction of CFU counts after re-treatment, M. smegmatis” value came to 0.182 log10. Moreover, the “effect on M. tuberculosis in RAW 264.7” value in series [2] is “neither DE nor CA showed inhibitory effects at either timepoint”. Moreover, in series [3], the “reduction of bacterial burden, M. smegmatis within RAW 264.7” value was 0.430 log10 CFU. Besides, in series [4], the “effect on A. salina nauplii survival” value is recorded as “did not affect nauplii survival rates” and the IC50 is over 120 µM. For the same compound, the “effect on M. tuberculosis CFU counts” value in series [5] (15 μM) is listed as “significant reductions in CFU counts”. Besides, the “effect of pre-incubation on M. tuberculosis bacterial loads” value in series [5] (15 μM, immediately after 3 h of infection) was “significantly reduced bacterial loads”. Moreover, in series [6], the “effect on HepG2 cell viability” value is “did not significantly reduce cell viability” and the 50% inhibitory concentration (IC50) was over 120 µM.

Broadly, the IC50 is the concentration needed to halve the response being measured.

(Values after PMC11944515, “Host-Mediated Antimicrobial Effects and NLRP3 Inflammasome Modulation by Caulerpin and Its Derivatives in Macrophage Models of Mycobacterial Infections” (Microorganisms, 2025).)
